# Assay results from US20220332737A1, “CARBOCYCLIC NUCLEOSIDE ANALOGUE” (Ludwig-Maximilians-Universität München, priority 2019, published 2022).
# Entries after “also recorded” stand apart in the source; their conditions may differ. Like-named read-outs stand apart in the source and are kept apart here.
# Assays:
# [1] = Test for hydrolytic stability in KH2PO4 buffer (HPLC); assay type: physicochemical; settings: for hydrolytic stability / degradation: aqueous KH2PO4 buffer 100 mM, pH 7.4, 5.5 and 8.5 (all tested pH values), 100 mM compound, r.t.
# Procedure: Both nucleosides were dissolved in aqueous KH2PO4 buffer (100 mM, pH=7.4, 5.5 and 8.5) in 100 mM concentration. The solutions were immediately analysed via HPLC (t=0 h) with subsequent HPLC analyses every 1.5 h or at indicated time points. As stationary phase an EC 250/4 NUCLEOSIL 120-3 C18 (Macherey-Nagel) chromatography column was used. The mobile phase consisted of water (buffer A) and acetonitrile (buffer B) at a flow-rate of 0.5 mL/min as follows: 0→25 min, 0→5% buffer B; 25 min→28 min, 5%→80%; 28 min→38 min, 80%; 38 min→43 min 80%→0%; 43 min→45 min, 0%.
# Since one treatment cycle for AzadC goes over four weeks we decided to measure the stability at a time point related to a half cycle (14 d). NMR spectra were measured after keeping the solutions at r.t.
# [2] = system: mouse embryonic stem cells (mESC); settings: from reference [19], cited from earlier work
# [3] = HPLC stability test of a neutral solution in pure water (FIG. 5); assay type: physicochemical; settings: 100 mM solutions in pure water, t=0 h to 6 d
# Procedure: FIG. 5. HPLC investigation of a neutral solution of Decitabine 1 (left) versus the carbacyclic compound cAzaC 20 (right). 100 mM solutions of the compounds were kept in pure water and tested at t=0 h, 1.5 h, 3 h, 4.5 h, 6 h, 24 h, 6 d.
# [4] = system: mouse embryonic stem cells (mESC); experiment: Treatment of primed mESC, UHPLC-MS2 quantification of genome incorporation and mdC/hmdC levels; assay type: cell-based; settings: for level incorporated into the genome: primed mESC
# Procedure: Feeder independent wt J1 (strain 129S4/SvJae) cells were cultured in the presence of serum and LIF as previously described. They were routinely maintained on gelatinized plates in 2i/L medium. For priming experiments, 2i cultures were passaged when applicable in DMEM supplemented with FBS and LIF as above but lacking the inhibitors. For drug treatment, cells were moved into the primed state by removing 2i from the medium. Cells were incubated 2 d in DMEM supplemented with FBS and LIF in 6-well plates (VWR). After splitting, 2×10^5 cells were transferred into a 6-well plate culture dish and supplemented with either 1 μM (in 0.01% DMSO) or 5 μM cAzadC (in 0.05% DMSO) and treated for 72 h. After removal of the medium and washing the cells with DPBS, they were directly lysed with RLT^+ buffer as described in a previous publication.
# The gDNA was isolated as described previously. The gDNA was directly subjected to a total enzymatic digest and analyzed using UHPLC-MS^2 as described in a previous publication. The external calibration curve was generated by serially diluting pure cAzadC [20 pmol, 10 pmol, 5 pmol, 2.5 pmol, 1.25 pmol, 0.625 pmol, 0.3125 pmol] and measuring it in technical triplicates prior to each measurement. Linear regression was done by OriginPro 2016G.
# We investigated if the disarming effect described in Example 3 would influence the biological functions. We used for this purpose mouse embryonic stem cells (mESC) that were primed in serum/Lif as a model system, since mdC levels increase from naïve to primed state. We added cAzadC 1 in two different concentrations (1 μM and 5 μM) to mESC that have been primed for 48 h and allowed the cells to further proliferate under priming conditions in the presence of cAzadC 1 for additional 72 h. After the 72 h, we harvested the cells, isolated the DNA and digested the DNA down to the nucleoside level using our described protocol.
# The levels of mdC were finally precisely quantified using isotope dilution UHPLC-MS^2. To this end, isotopically labelled standards of the nucleosides were spiked-in for exact quantification. In addition to mdC, we quantified the levels of 5-hydroxymethyl-2′-deoxycytidine (hmdC), which is formed from mdC by the action of TET enzymes. The absolute levels of hmdC are in mESC more than ten times lower than the mdC levels. The consequence is that even after a substantial reduction of mdC, there should be sufficient mdC to keep the hmdC levels constant. The question if and by how much the hmdC level is affected can therefore inform us about how epigenetic reprogramming is organized.
# Parallel to the quantification of mdC and hmdC we also quantified to which extend cAzadC 1 itself was incorporated into the genome of the mESC. Detection of AzadC in the genome of treated cells is only possible after treatment of the DNA with NaBH4. Application of NaBH4 reduces the C(5)=C(6) double bond, which stabilizes the compound so that its quantification becomes possible. To our delight, we noted that the stability of cAzadC 1 allowed its quantification without this pre-treatment. We also noted that the applied enzymatic digestion protocol allowed to digest genomic DNA (gDNA) even in the presence of large amounts of cAzadC 1. Taken together, quantification of cAzadC 1 by UHPLC-MS^2 using an external calibration curve was possible in parallel to quantification of canonical and epigenetic bases.
Compound,hydrolytic stability / degradation ([1]; 14 d),"intact compound remaining ([1]; pH=5.5, 14 d)","intact compound remaining ([1]; pH=8.5, 14 d)","intact compound remaining / degradation ([1]; physiological pH (7.4), 14 d)","decrease of mdC to % of the original value ([2]; 24 h, 1 μM)",level incorporated into the genome ([2]; applied with 1 μM),stability compared with decitabine [3],"hmdC levels reduced to ([4]; 1 μM, 72 h)","nucleotides integrated into the genome ([4]; 1 μM, 72 h)","level incorporated into the genome ([4]; 1 μM, 72 h)","incorporated level relative to the AzadC level ([4]; 1 μM, compared with AzadC at 1 μM [19])","increase of incorporated level, 5 μM versus 1 μM ([4]; 5 μM versus 1 μM)","nucleotides integrated per genome ([4]; 5 μM, 72 h)","hmdC detection ([4]; 5 μM, 72 h, 0.5 μg of genomic DNA)","level incorporated into the genome ([4]; 5 μM, 72 h)","mdC levels, of the original value ([4]; 72 h at 5 µM concentration in the medium)",reduction of the mdC values ([4]; 72 h at 1 M cAzadC in the medium),"mdC level relative to the control levels ([4]; summary, concentration not given)"
"Nc1ncn([C@H]2C[C@H](O)[C@@H](CO)O2)c(=O)n1 [AzadC, 5-Aza-2′-deoxycytidine]",strongly degraded; also recorded: severe hydrolytic decomposition,only hardly detectable,only hardly detectable,still present after 14 d but the level of degradation is dramatic,50%,1.2×10^−3 AzadC per dN,,,,,,,,,,,,
"Nc1ncn([C@@H]2C[C@H](CO)[C@@H](O)[C@H]2O)c(=O)n1 [cAzaC 20, 4-Amino-1-[(1′R,2′S,3′R,4′R)-2′,3′-bishydroxy-4′-(hydroxymethyl) -cyclopentyl]-1H-[1,3,5]-triazin-2-one]",,,,,,,much more stable,,,,,,,,,,,
"Nc1ncn([C@@H]2C[C@H](CO)[C@@H](O)C2)c(=O)n1 [cAzadC 1, 4-Amino-1-[(1′R,3′S,4′R)-3′-hydroxy-4′-(hydroxymethyl)-cyclopentyl]-1H -[1,3,5]triazin-2-one]",no degradation; also recorded: stable at all three pH values,,,,,,,about 50%,~3 million,5×10^−4 cAzadC per dN,about a third,3 fold,more than 8 million,unable to detect hmdC above background levels,1.7×10^−3 cAzadC per dN,about 50%,~30%,70%
